Results: patent US12005120B2, “Galnac conjugated modified oligonucleotides as miR-122 inhibitor having HCV antiviral activity with reduced hyperbilirubinemia side-effect” (Regulus Therapeutics Inc., priority 2018, dated 2024)
Read-outs that look alike come from different tables or passages of the source.

Assays:
[1] = tested on: miR-122; experiment: In vivo potency: liver ALDOA mRNA derepression; settings: single subcutaneous dose, liver after 7 days; for ALDOA derepression ED50 Expt #1: fold change in ALDOA mRNA relative to saline
Experimental: Inhibition of miR-122 leads to an increase in ALDOA expression, thus ALDOA mRNA levels can be used to measure miR-122 inhibitory activity in vivo.
(§1) Only GalNAc-conjugated compounds were tested in this assay. Compounds were administered at molar equivalents with regard to the anti-miR portion of the compound. A single, subcutaneous dose of RG-101 was administered subcutaneously at doses ranging from 0.004 to 1.116 umol/kg. Other compounds were administered in a single subcutaneous dose at doses ranging from 0.006 to 1.942 umol/kg. After 7 days the study was terminated. Liver tissue was collected for measurement of ALDOA mRNA and drug levels. Kidney tissue was collected for measurement of drug levels. Blood was collected for measurement of cholesterol.
ALDOA mRNA levels were measured, by quantitative PCR, in RNA isolated from liver. The fold change in ALDOA mRNA, relative to saline, was used to calculate an ED50 (umol/kg) for each compound (“ND” indicates “not determined), as shown in Table 4.

[2] = tested on: cholesterol; experiment: In vivo potency: cholesterol reduction; settings: single subcutaneous dose (doses in umol/kg), blood after 7 days
Experimental: as §1

[3] = tested on: HCV GT1b replicon; experiment: HCV replicon assay (Huh7 cells, luciferase reporter); format: cell-based, HCV genotype 1b
Description: An HCV replicon assay was used to determine the ability of anti-miR-122 compounds to inhibit the replication of HCV genotype 1b. In this assay, test compounds are introduced into Huh7 cells stably transfected with a HCV GT1b replicon containing a luciferase reporter gene. The luciferase reporter is used as an indirect measure of HCV replication. While a GalNAc-conjugated compound is expected to be preferable for treatment of HCV infection, due to the enhanced delivery to hepatocytes, some unconjugated compounds were tested.
Selected compounds were tested at nine concentrations ranging from 0.015 uM to 100 uM. GS-7977 (sofosbuvir) was included as a positive control. Cells were plated into 96-well plates at a density of 8,000 cells per well. Compound was added to the cells for a period of 72 hours. Luminescent signal in the supernatant was detected using the Bright-Glo reagent, and used to calculate the antiviral activity of each compound. The CellTiter-Fluor reagent was used to assess cell viability. The EC50 (concentration at which 50% inhibition was observed) was calculated.

[4] = target: T1, MRP2 transporter (Homo sapiens, UniProt Q92887); experiment: In vitro MRP2 transporter assay (inside-out membrane vesicles, [3H]-estradiol-17β-glucuronide); format: in vitro ADME
T1 construct: expressed in transfected cells; host or cells: insect cells (transiently transfected); inside-out membrane vesicles
Experimental: To test the hypothesis that RG-101 was interfering with MRP2 transporter activity, an in vitro assay was performed per methods known in the art (see, for example, Vermeer et al., Drug Metab. Dispos., 2016, 44(3):453-9). In this assay, an efflux transporter-expressing vesicle is used to evaluate if a drug is a substrate or inhibitor of a transporter. Inside-out membrane vesicles are prepared from insect cells transiently transfected with a single efflux transporter, in this case MRP2. As the vesicles are in an inside-out orientation, the MRP2 transporter pumps radiolabeled substrate, [3H]-estradiol-17β-glucuronide, in an ATP-dependent manner, into the vesicles, and the accumulation of radiolabeled substrate inside the vesicle is measured. If a compound is an MRP2 transport inhibitor, the accumulation of radiolabeled substrate will be reduced relative to control samples. The inhibitory effect of the compound is evaluated by determining the IC50, the concentration resulting in 50% inhibition of transporter-mediated uptake of the radiolabeled substrate.
The in vitro MRP2 assay was performed for RG-101. Both RG-101, and RG1649, the unconjugated anti-miR of RG-101, were tested at concentrations of 0, 0.1, 0.3, 1, 3, 10, 30, and 100 uM. […] Thus, RG-101 inhibited the MPR2 transporter in this assay.
The MRP2 assay was performed for anti-miR-122 compounds selected based on potency in the HCV replicon assay and structural diversity.

[5] = tested on: IFIT; experiment: In vivo safety: liver expression of interferon-inducible gene IFIT
Experimental: The compounds that met the criteria for in vivo potency were also tested for safety. The capacity of a compound to trigger a pro-inflammatory response was assessed by measuring the expression of the interferon-inducible gene IFIT in the liver. Additionally, the level of ALT following administration of a compound was also measured.

[6] = tested on: miR-122; experiment: Onset of action: liver ALDOA mRNA de-repression; format: in vivo, mice; settings: 0.014 to 1.117 umol/kg; liver 1, 3, 7 or 14 days after administration; relative to RG2634
Experimental: To determine whether RG6650 and RG2634 could be distinguished by onset of action, groups of mice were treated with compound at doses ranging from 0.014 to 1.117 umol/kg. Liver tissue was collected from groups of 4 to 5 mice 1, 3, 7, or 14 days following administration. RNA was isolated and ALDOA mRNA was measured.

[7] = tested on: HCV genotype 1a; experiment: Human chimeric liver mouse model of HCV infection, serum HCV RNA; format: in vivo, mice; settings: RG6650 60 mg/kg, single administration
Description: Due to host-pathogen specificity, HCV can only infect humans and chimpanzees. As such, smaller species, such as mice, that are typically used for experimental in vivo studies cannot be infected with HCV for testing of candidate agents for the treatment of HCV infection. To address this problem, human liver chimeric mouse models may be utilized (see, e.g., Bissig et al., Proc Nat Acad Sci US A, 2007, 104:20507-20511; Bissig et al., J Clin Invest., 2010, 120: 924-930). In this model, the livers of immunodeficient mice are repopulated with human hepatocytes, resulting in a chimeric liver in which most of the hepatocytes are human hepatocytes. The mice are then infected with HCV and treated with anti-HCV agents. This mouse model is commercially available from, for example, PhoenixBio.
Anti-miR-122 compounds were tested in a human chimeric liver mouse model of HCV infection. The livers of immunodeficient mice were repopulated with human hepatocytes, resulting in a chimeric liver in which most of the hepatocytes are human hepatocytes. Six weeks following inoculation with HCV genotype 1a, a baseline viral titer was obtained for each animal included in the study.
Groups of four animals each were treated with PBS, RG-101 at a dose of 45 mg/kg, or RG6650 at a dose of 60 mg/kg. Blood was collected on Days 3, 7, 10, 14, 21, 28, 35, 42, and 49. The study was terminated on day 49.

[8] = tested on: miR-122; experiment: Free uptake in primary human hepatocyte 3D spheroids, ALDOA by RT-PCR; format: cell-based
[9] = tested on: miR-122; experiment: Pharmacodynamic activity in liver after oral or s.c. administration (ALDOA); format: in vivo, mice; settings: 30 mg/kg s.c. in PBS, single dose, four days later
Experimental: An experiment was performed to determine whether oral administration of RG6650 would results in pharmacodynamic modulation of miR-122 in liver. Also tested was RG7443, the unconjugated anti-miR of RG6650. While an unconjugated anti-miR-122 is not as effective as a GalNAc-conjugated for the inhibition of miR-122 in the treatment of HCV, it was included for comparison in the oral administration study.
(§2) Anti-miR compounds were delivered in PBS for subcutaneous administration. Orally administered anti-miR compounds were prepared in a solution of PBS and 0.3 M sodium bicarbonate (BC) was added to a pH of 9.5. For oral dosing, animals were fasted for 12 hours prior. For all treatment groups, mice were administered a single dose and sacrificed four days later. Liver tissue was collected for pharmacodynamic and pharmacokinetic analyses. RNA was isolated from liver and kidney. […] in the liver was measured.

[10] = tested on: HCV; settings: chronic treatment naïve HCV infected subjects; cited from earlier work
[11] = Anti-miR amounts in liver tissue after oral or s.c. administration; format: in vivo, mice; settings: single dose, four days later
Experimental: as §2

[12] = 72 hours, Expt #1, read-out: EC50 uM Expt #1
[13] = MRP2 transporter assay, Expt #2, read-out: IC50 uM Expt #2

T1 sequence (Q92887 whole entry): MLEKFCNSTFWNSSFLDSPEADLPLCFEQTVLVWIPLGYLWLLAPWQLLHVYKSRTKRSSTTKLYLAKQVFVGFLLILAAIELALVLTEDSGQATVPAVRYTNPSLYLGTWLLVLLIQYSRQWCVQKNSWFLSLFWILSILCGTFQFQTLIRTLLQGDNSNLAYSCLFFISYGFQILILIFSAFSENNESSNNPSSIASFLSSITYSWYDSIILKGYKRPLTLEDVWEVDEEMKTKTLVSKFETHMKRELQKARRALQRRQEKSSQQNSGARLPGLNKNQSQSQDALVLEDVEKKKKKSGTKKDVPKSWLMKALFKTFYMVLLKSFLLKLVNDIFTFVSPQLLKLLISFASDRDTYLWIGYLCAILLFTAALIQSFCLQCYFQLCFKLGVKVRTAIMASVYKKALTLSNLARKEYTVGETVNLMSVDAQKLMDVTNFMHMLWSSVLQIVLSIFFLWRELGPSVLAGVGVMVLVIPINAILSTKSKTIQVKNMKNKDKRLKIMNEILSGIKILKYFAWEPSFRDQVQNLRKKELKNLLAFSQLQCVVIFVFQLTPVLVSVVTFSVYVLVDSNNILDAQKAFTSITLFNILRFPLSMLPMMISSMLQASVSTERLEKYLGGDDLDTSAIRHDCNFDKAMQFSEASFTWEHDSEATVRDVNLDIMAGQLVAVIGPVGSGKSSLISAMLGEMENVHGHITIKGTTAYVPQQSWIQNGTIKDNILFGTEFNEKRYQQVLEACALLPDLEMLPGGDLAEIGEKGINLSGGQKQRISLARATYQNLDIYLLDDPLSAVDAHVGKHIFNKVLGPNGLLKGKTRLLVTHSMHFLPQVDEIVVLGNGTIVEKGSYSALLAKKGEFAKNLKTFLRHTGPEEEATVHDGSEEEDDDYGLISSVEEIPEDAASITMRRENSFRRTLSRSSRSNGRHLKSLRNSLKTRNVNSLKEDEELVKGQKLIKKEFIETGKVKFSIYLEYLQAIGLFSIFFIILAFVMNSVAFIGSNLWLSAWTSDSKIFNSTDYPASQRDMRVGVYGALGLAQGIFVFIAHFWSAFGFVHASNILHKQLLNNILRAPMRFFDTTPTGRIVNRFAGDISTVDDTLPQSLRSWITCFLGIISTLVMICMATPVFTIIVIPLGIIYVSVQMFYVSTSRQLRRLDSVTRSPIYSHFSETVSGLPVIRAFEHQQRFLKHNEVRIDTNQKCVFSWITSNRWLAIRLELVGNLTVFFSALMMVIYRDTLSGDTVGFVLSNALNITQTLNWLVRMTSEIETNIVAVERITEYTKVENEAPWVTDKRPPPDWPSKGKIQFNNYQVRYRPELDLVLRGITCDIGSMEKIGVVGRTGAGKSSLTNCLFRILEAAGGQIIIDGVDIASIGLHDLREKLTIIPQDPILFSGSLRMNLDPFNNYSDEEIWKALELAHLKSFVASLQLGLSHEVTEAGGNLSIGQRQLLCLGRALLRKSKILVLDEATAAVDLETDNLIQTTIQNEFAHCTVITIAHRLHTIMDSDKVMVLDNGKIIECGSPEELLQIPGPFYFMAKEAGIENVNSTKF

Row | Compound | ALDOA derepression ED50 Expt #1 [1] | Cholesterol reduction ED50 Expt #1 [2] | EC50 [3, 12] | IC50 [4, 13] | further results
1 | USCSAS^POCS^POAS^POCS^POUSCSCS [RG6372] | 0.028 µmol/kg | 0.8088 | > 100 µM |  | 
2 | CSASCS^POAS^POCS^POUS^POCSCSAS [RG6371] | 0.086 µmol/kg | 1.116 | 34.1 µM |  | 
3 | CSASCSASCSUSCSCSAS [RG6234] |  |  | 17.4 µM | > 100 µM | 
4 | USCSASCSASCSUSCSCS [RG3054] |  | .08152 | > 100 µM | > 100 µM | Expression of IFIT in the liver (pro-inflammatory response) [5]: increased the expression of IFIT
5 | CSASCSASCSUSCSCS [RG2634] | 0.029 µmol/kg | 0.011 | 22.5 µM | > 100 µM | 
6 | CC(C)OC(=O)[C@H](C)N[P@](=O)(OC[C@H]1O[C@@H](n2ccc(=O)[nH]c2=O)[C@](C)(F)[C@@H]1O)Oc1ccccc1 [GS-7977, sofosbuvir, reference compound] |  |  |  |  | EC50 ([3]; Hepatitis C virus, GT1B, Huh-7, 72 hours, Expt #1, read-out: EC50 uM Expt #1): 0.149 µM; EC50 ([3]; Hepatitis C virus, GT1B, Huh-7, 72 hours, Expt #2, read-out: EC50 uM Expt #2): 0.098 µM
7 | USCSACSACSTCSCS [RG6650] |  |  |  |  | ALDOA derepression ED50 Expt #2 ([1]; Expt #2): 0.091 µmol/kg; Onset of action by ALDOA mRNA de-repression [6]: increased de-repression of ALDOA mRNA at a lower dose and earlier time point; IC50 ([4]; MRP2 transporter assay, Expt #1, read-out: IC50 uM Expt #1): > 100 µM; IC50 ([4]; assay conducted multiple times, read-out: MRP2 IC50 range over multiple studies): > 100 µM; Cholesterol reduction ED50 Expt #2 ([2]; Expt #2): 0.025; Reduction in serum HCV RNA [7]: greater than 2 log; Viral titer, serum HCV RNA ([7]; RG-101 45 mg/kg, up to day 49, FIG. 1): significant reductions in viral titer; EC50 ([3]; 72 hours, Expt #2, read-out: EC50 uM Expt #2): 11.3 µM; EC50 ([8]; 3D PHH spheroids, three days treatment, read-out: EC50 (ALDOA levels)): 0.00207 µM; Decrease of EC50 by the GalNAc conjugate ([8]; RG6650 compared to RG7443): ~1000 fold; Liver PD Sig [9]: 1.704
8 | CSASCSASCSUSCSCS [RG497998] |  |  | 7.71 µM |  | 
9 | miravirsen |  |  |  |  | Serum HCV RNA [10]: reduction in serum HCV RNA
10 | UsCsACsACsTCsCs [RG7443] |  |  |  |  | Liver Mean (anti-miR amount) ([11]; 30 mg/kg s.c. in PBS): 1.48 µg/g; Liver Mean (anti-miR amount) ([11]; 100 mg/kg p.o. in BC): <0.4 µg/g; Liver PD Sig [9]: 1.945
11 | CsASCSASCSUSCSCSAS [RG6370] | 6.51 µmol/kg | 0.0007 | 60.9 µM | > 100 µM | Expression of IFIT in the liver (pro-inflammatory response) [5]: increased the expression of IFIT
